One experiment concerns the target T1, FLT3-D835Y (Homo sapiens, UniProt P36888, D835Y).
T1 construct: purchased Invitrogen PV3967
T1 sequence (P36888 27-993 D835Y): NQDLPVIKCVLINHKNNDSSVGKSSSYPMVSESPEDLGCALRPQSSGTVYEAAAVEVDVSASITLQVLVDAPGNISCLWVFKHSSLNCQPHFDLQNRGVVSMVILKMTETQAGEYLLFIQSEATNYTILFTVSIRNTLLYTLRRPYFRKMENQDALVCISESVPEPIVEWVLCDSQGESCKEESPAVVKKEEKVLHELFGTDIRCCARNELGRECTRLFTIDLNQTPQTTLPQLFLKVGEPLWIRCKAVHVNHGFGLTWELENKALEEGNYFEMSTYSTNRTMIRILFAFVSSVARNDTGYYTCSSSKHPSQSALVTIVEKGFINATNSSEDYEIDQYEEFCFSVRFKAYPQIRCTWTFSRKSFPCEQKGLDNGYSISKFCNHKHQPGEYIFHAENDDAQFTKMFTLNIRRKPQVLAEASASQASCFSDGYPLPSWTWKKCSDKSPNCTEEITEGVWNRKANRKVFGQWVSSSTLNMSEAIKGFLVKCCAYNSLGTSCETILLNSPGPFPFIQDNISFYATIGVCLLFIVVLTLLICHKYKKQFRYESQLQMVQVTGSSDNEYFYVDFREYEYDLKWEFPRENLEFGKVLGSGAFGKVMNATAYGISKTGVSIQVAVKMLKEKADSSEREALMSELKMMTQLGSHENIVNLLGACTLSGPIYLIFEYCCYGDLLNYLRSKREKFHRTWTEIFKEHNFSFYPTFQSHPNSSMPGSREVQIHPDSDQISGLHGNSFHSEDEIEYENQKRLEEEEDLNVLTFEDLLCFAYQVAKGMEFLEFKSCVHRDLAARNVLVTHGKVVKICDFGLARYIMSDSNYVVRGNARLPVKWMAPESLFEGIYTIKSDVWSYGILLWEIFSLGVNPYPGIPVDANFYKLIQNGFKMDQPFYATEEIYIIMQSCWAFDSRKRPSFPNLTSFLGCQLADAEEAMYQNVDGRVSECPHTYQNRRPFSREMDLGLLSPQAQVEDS
In words: FLT3-D835Y recombinant enzyme kinase assay (AlphaScreen). It counts as biochemical. Particulars: 8 pt, GMean. The method in brief: (§1)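 Kinase activity of recombinant FLT3-ITD, FLT3-D835Y and c-KIT was followed via phosphotyrosine formation on a 30 nM biotin-peptide substrate, captured on streptavidin donor and anti-phosphotyrosine acceptor AlphaScreen beads. ATP was set at 10 μM for FLT3 and 100 μM for c-KIT.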

The target of a further experiment is T2, FLT3-ITD (Homo sapiens, UniProt P36888).
T2 sequence (P36888 1-993): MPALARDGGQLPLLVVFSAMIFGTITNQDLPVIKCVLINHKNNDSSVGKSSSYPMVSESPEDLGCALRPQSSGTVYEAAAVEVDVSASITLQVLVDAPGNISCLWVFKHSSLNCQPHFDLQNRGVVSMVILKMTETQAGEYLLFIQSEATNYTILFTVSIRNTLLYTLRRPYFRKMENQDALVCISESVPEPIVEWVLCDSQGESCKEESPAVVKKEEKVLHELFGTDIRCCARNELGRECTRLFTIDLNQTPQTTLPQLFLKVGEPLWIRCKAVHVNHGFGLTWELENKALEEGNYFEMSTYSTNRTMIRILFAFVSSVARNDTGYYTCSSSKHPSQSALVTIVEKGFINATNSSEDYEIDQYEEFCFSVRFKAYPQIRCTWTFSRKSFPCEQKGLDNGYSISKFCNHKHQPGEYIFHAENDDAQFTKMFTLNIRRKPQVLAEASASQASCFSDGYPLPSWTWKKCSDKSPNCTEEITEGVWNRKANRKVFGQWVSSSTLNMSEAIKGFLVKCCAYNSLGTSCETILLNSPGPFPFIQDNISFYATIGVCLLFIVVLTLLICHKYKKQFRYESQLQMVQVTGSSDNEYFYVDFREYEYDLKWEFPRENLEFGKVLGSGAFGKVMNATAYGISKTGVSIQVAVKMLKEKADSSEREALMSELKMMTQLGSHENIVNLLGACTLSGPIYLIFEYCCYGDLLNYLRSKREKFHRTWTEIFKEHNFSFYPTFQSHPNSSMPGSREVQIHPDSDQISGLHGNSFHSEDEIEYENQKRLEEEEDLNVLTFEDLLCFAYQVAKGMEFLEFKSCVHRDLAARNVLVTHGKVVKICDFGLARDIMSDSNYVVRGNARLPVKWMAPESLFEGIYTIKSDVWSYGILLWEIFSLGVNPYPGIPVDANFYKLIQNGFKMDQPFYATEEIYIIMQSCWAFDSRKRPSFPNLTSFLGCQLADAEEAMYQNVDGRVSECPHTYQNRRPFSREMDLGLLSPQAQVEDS
As to the kind of experiment: FLT3-ITD recombinant enzyme kinase assay (AlphaScreen). It counts as biochemical. The note with it: 8 pt; read-out: FLT3_ITD 8 pt: IC50. The procedure, abridged:
as §1

SMILES strings stand for the structures. pIC50: −log10 of the molar value.

Take `COc1ncc(NC(=O)Cc2ccc(-c3cnc(Nc4cn(C)cn4)nc3)cc2)cc1C(F)(F)F` [Compound P-0149, N-[6-methoxy-5-(trifluoromethyl)-3-pyridyl]-2-[4-[2-[(1-methylimidazol-4-yl)amino]pyrimidin-5-yl]phenyl]acetamide]: the pIC50 at FLT3-D835Y and at FLT3-ITD was 5.00 to 10.00 throughout.
With `O=C(Cc1ccc(-c2cnc3[nH]c(-c4ccccc4)cc3c2)cc1F)Nc1ccnc(C(F)(F)F)c1` [Compound P-0004, 2-[2-fluoro-4-(2-phenyl-1H-pyrrolo[2,3-b]pyridin-5-yl)phenyl]-N-[2-(trifluoromethyl)-4-pyridyl]acetamide], the pIC50 on FLT3-D835Y and on FLT3-ITD was 5.00 to 10.00 in each case.
As to `COCCn1cc(Nc2ncc(-c3ccc(CC(=O)Nc4cncc(C(F)(F)F)c4)cc3)cn2)cn1` [Compound P-0178, 2-[4-[2-[[1-(2-methoxyethyl)pyrazol-4-yl]amino]pyrimidin-5-yl]phenyl]-N-[5-(trifluoromethyl)-3-pyridyl]acetamide], the pIC50 on FLT3-D835Y and at FLT3-ITD was 5.00 to 10.00 each time.
Turning to `Cn1cc(Nc2ncc(-c3ccc(CC(=O)NCc4cncc(C(F)(F)F)c4)cc3)cn2)cn1` [Compound P-0161, 2-[4-[2-[(1-methylpyrazol-4-yl)amino]pyrimidin-5-yl]phenyl]-N-[[5-(trifluoromethyl)-3-pyridyl]methyl]acetamide], the negative logarithm of the IC50 (pIC50) at FLT3-D835Y and on FLT3-ITD was 5.00 to 10.00 in each case.
Regarding `CC(C)c1cc(NC(=O)Cc2ccc(-c3cnc(Nc4cnn(C)c4)nc3)cc2F)ccn1` [Compound P-0094, 2-[2-fluoro-4-[2-[(1-methylpyrazol-4-yl)amino]pyrimidin-5-yl]phenyl]-N-(2-isopropyl-4-pyridyl)acetamide], the pIC50 at FLT3-D835Y and at FLT3-ITD was 5.00 to 10.00 in each case.
With `O=C(Cc1ccc(-c2cnc3[nH]c(-c4ccc(N5CCOCC5)nc4)cc3c2)c(F)c1)Nc1cc(C(F)(F)F)ccn1` [Compound P-0192, 2-[3-fluoro-4-[2-(6-morpholino-3-pyridyl)-1H-pyrrolo[2,3-b]pyridin-5-yl]phenyl]-N-[4-(trifluoromethyl)-2-pyridyl]acetamide], the pIC50 on FLT3-D835Y and on FLT3-ITD was 5.00 to 10.00 each time.
`COc1nn(C[C@H](C)O)cc1Nc1ncc(-c2ccc(CC(=O)Nc3cnc(C)c(C(F)(F)F)c3)cc2)cn1` [Compound P-0180, 2-[4-[2-[[1-[(2S)-2-hydroxypropyl]-3-methoxy-pyrazol-4-yl]amino]pyrimidin-5-yl]phenyl]-N-[6-methyl-5-(trifluoromethyl)-3-pyridyl]acetamide]: the pIC50 on FLT3-D835Y and at FLT3-ITD was 5.00 to 10.00 throughout.
Take `Cc1ncc(NC(=O)Cc2ccc(-c3cnc(Nc4cnn(C)c4)nc3)cc2F)cc1C(F)(F)F` [Compound P-0091, 2-[2-fluoro-4-[2-[(1-methylpyrazol-4-yl)amino]pyrimidin-5-yl]phenyl]-N-[6-methyl-5-(trifluoromethyl)-3-pyridyl]acetamide]: the pIC50 on FLT3-D835Y and at FLT3-ITD was 5.00 to 10.00 throughout.
Turning to `O=C(Cc1ccc(-c2cnc3[nH]c(-c4ccc(N5CCOCC5)nc4)cc3c2)c(F)c1)Nc1cncc(C(F)(F)F)c1` [Compound P-0198, 2-[3-fluoro-4-[2-(6-morpholino-3-pyridyl)-1H-pyrrolo[2,3-b]pyridin-5-yl]phenyl]-N-[5-(trifluoromethyl)-3-pyridyl]acetamide], the negative logarithm of the IC50 (pIC50) at FLT3-D835Y and at FLT3-ITD was 5.00 to 10.00 throughout.
Regarding `COc1ncc(NC(=O)Cc2ccc(-c3cnc(Nc4cnn(C)c4)nc3)cc2)cc1C(F)(F)F` [Compound P-0138, N-[6-methoxy-5-(trifluoromethyl)-3-pyridyl]-2-[4-[2-[(1-methylpyrazol-4-yl)amino]pyrimidin-5-yl]phenyl]acetamide], the pIC50 at FLT3-D835Y and on FLT3-ITD was 5.00 to 10.00 throughout.
On to `O=C(Cc1ccc(-c2cnc3[nH]c(-c4ccccc4)cc3c2)c(F)c1)Nc1cccc(C(F)(F)F)c1` [Compound P-0003, 2-[3-fluoro-4-(2-phenyl-1H-pyrrolo[2,3-b]pyridin-5-yl)phenyl]-N-[3-(trifluoromethyl)phenyl]acetamide], for which the pIC50 at FLT3-D835Y and at FLT3-ITD was 5.00 to 10.00 throughout.

These data come from patent US10160747B2, “Compounds and methods for kinase modulation, and indications therefor” (Plexxikon Inc., priority 2016, dated 2018).
